Assay results: ChEMBL document CHEMBL1135982, “New strategy for antedrug application: development of metalloproteinase inhibitors as antipsoriatic drugs” (J Med Chem, 2002)

Tests used:
Interstitial collagenase = target: T1, Interstitial collagenase (Homo sapiens, UniProt P03956); test: Inhibition of Matrix metalloprotease-1 (MMP-1)
T1 sequence (P03956 whole entry): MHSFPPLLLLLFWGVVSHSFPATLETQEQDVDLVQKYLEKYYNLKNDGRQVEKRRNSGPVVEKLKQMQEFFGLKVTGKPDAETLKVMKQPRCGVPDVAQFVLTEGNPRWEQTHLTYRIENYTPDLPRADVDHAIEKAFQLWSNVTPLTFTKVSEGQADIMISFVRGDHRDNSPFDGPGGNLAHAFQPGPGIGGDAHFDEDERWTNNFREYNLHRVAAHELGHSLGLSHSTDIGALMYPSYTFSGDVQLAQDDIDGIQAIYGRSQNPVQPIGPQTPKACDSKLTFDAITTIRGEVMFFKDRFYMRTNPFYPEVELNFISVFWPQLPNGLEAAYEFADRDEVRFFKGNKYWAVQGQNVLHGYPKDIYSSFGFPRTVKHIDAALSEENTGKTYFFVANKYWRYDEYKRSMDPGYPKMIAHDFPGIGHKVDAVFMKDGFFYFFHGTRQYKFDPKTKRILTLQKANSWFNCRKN

[1] = target: Disintegrin and metalloproteinase domain-containing protein 17 (Homo sapiens, UniProt P78536); test: Inhibition of heparin-binding epidermal growth factor (HB-EGF) shedding; format: functional
Chain of Disintegrin and metalloproteinase domain-containing protein 17 (P78536 whole entry, the tested form may be a part): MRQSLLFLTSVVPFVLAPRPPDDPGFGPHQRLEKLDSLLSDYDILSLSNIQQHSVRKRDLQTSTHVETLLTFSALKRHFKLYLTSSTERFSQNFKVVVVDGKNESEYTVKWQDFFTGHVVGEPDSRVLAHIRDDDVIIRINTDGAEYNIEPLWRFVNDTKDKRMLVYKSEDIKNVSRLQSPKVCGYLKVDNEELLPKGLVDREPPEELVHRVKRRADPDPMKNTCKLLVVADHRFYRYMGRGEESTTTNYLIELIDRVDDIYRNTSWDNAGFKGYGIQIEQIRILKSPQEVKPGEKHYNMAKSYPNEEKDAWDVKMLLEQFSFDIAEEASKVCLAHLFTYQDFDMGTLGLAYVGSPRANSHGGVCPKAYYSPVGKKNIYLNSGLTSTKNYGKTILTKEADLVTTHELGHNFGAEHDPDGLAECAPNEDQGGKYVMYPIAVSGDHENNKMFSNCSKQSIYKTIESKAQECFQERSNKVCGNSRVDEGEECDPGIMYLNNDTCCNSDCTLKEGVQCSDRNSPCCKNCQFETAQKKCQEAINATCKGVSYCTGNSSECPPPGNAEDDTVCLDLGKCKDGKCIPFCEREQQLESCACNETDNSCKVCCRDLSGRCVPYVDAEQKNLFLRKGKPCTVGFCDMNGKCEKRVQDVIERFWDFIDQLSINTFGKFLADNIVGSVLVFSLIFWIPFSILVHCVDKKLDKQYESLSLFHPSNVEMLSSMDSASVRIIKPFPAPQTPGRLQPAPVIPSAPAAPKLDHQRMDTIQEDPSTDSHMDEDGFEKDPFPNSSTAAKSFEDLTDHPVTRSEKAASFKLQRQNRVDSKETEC

[2] = target: Matrix metalloproteinase-9 (Homo sapiens, UniProt P14780); test: Inhibition of Matrix metalloprotease-9 (MMP-9)
Chain of Matrix metalloproteinase-9 (P14780 whole entry): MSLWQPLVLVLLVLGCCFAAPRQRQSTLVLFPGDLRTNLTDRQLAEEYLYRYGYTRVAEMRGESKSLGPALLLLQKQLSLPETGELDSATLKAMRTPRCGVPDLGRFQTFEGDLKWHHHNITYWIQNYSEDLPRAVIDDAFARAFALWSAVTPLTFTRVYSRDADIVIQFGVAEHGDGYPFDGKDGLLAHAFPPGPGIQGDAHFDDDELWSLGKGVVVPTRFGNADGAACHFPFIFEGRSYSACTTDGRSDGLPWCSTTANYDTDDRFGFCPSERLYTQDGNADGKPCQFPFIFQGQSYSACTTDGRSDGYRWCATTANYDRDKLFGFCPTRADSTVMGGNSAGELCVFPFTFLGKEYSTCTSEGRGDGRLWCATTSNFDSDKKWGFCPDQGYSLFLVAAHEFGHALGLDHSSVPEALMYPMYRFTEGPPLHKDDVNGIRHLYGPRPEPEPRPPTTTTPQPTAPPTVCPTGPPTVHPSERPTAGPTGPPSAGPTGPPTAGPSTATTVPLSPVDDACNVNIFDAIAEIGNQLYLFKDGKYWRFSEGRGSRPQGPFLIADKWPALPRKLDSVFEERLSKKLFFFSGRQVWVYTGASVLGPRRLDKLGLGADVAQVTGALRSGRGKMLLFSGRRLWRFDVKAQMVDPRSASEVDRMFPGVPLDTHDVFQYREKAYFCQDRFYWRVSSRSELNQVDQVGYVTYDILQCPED

Stromelysin-1 = Stromelysin-1 (Homo sapiens, UniProt P08254); test: Inhibition of Matrix metalloprotease-3 (MMP-3)
Chain of Stromelysin-1 (P08254 whole entry): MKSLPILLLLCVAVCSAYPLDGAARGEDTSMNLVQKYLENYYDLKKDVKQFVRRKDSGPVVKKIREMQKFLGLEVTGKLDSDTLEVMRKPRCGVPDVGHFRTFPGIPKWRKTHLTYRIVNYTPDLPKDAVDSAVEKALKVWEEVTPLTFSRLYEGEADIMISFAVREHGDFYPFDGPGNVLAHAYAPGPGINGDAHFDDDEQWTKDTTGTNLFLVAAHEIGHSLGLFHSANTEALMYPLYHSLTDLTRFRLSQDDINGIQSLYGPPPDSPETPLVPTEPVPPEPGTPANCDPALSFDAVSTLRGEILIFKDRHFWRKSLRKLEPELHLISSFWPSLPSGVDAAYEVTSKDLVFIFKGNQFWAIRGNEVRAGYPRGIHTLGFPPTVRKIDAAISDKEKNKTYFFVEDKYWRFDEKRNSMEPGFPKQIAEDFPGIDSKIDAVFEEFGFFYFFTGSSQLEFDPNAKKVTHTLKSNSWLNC

Amphiregulin = target: T2, Amphiregulin (Homo sapiens, UniProt P15514); test: In vitro amphiregulin shedding inhibition; format: functional
T2 sequence (P15514 whole entry): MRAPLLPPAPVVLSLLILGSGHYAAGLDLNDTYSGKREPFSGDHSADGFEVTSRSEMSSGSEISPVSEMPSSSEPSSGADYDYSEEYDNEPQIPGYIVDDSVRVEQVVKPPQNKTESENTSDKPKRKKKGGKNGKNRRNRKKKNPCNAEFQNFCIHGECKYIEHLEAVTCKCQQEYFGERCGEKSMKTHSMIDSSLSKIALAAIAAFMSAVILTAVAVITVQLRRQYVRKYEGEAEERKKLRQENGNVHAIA

Mus musculus [3] = organism: Mus musculus; test: Activity against TPA-induced epidermal hyperplasia in mice, and epidermal thickness value was reported; format: functional; parameters: unit not given here
Mus musculus [4] = organism: Mus musculus; test: Activity against TPA-induced epidermal hyperplasia in mice, and percent decrease in TPA-induced hyperplasia was reported; format: functional
Homo sapiens = organism: Homo sapiens; test: Stability in human plasma and percentage of compound remained after 60 minutes was reported; format: functional, cell-free

Structure (SMILES)	Ki (Interstitial collagenase) [nM]	IC50 [1] [nM]	Ki [2] [nM]	Ki (Stromelysin-1) [nM]	IC50 (Amphiregulin) [nM]	Epidermal thickness (Mus musculus [3])	Decrease (Mus musculus [4]) [%]	Stability (Homo sapiens) [%]
COc1ccc([P@](=O)(OCC(F)(F)F)N2Cc3ccccc3C[C@@H]2C(=O)NO)cc1	6.57	730	3.68	6.75	950	–	–	–
CCCCCCCCCCCCCC(=O)O[C@@H]1[C@@H](C)[C@@]2(O)[C@@H](C=C(CO)C[C@]3(O)C(=O)C(C)=C[C@@H]23)[C@@H]2C(C)(C)[C@]12OC(C)=O [PHORBOL MYRISTATE ACETATE]	–	–	–	–	–	62.2	–	–
CCO[P@](=O)(c1ccc(OC)cc1)N1Cc2ccccc2C[C@@H]1C(=O)NO	–	> 10000	> 800	–	–	–	–	–
CCCCCCCCCCCCCC(=O)O[C@@H]1[C@@H](C)[C@]2(O)C3C=C(C)C(=O)[C@@]3(O)CC(CO)=C[C@H]2[C@@H]2C(C)(C)[C@]12OC(C)=O.COc1ccc([P@](=O)(OCC(F)(F)F)N2Cc3ccccc3C[C@@H]2C(=O)NO)cc1 (stereo partly specified)	–	–	–	–	–	<30.5	81.3	–
COc1ccc([P@](=O)(OCC(F)F)N2Cc3ccccc3C[C@@H]2C(=O)NO)cc1	6	510	4.97	6.67	1470	–	–	–
COc1ccc(P(=O)(OC)N2Cc3ccccc3CC2C(=O)NO)cc1 (stereo unspecified)	–	< 1000	–	–	–	–	–	–
CCCCCCCCCCCCCC(=O)O[C@@H]1[C@@H](C)[C@]2(O)C3C=C(C)C(=O)[C@@]3(O)CC(CO)=C[C@H]2[C@@H]2C(C)(C)[C@]12OC(C)=O.CCO[P@@](=O)(c1ccc(OC)cc1)N1Cc2ccccc2C[C@@H]1C(=O)NO (stereo partly specified)	–	–	–	–	–	<44.4	45.6	–
COc1ccc([P@](=O)(OCCF)N2Cc3ccccc3C[C@@H]2C(=O)NO)cc1	10.5	180	10.5	9.07	470	–	–	96
CCCCCCCCCCCCCC(=O)O[C@@H]1[C@@H](C)[C@]2(O)C3C=C(C)C(=O)[C@@]3(O)CC(CO)=C[C@H]2[C@@H]2C(C)(C)[C@]12OC(C)=O.COc1ccc([P@](=O)(OCC(F)F)N2Cc3ccccc3C[C@@H]2C(=O)NO)cc1 (stereo partly specified)	–	–	–	–	–	<39.7	57.7	–
O=C(NO)C1Cc2ccccc2CN1 (stereo unspecified)	–	> 10000	> 800	> 650	–	–	–	–
COc1ccc([P@](=O)(OCCC(F)(F)F)N2Cc3ccccc3C[C@@H]2C(=O)NO)cc1	2.21	310	4.46	3.33	970	–	–	99
CCO[P@@](=O)(c1ccc(OC)cc1)N1Cc2ccccc2C[C@@H]1C(=O)NO	4.59	230	5.05	5.2	350	–	–	100
